Results taken from patent US20050148598A1, “Trioxane derivatives” (priority 2001, published 2005).
Read-outs that look alike come from different tables or passages of the source.

Assays:
[1] = tested on: K1 strain of P. falciparum; experiment: 48-h [3H]-hypoxanthine incorporation antimalarial sensitivity assay, K1 strain; type: cell-based
Experimental: (§1) The antimalarial activity of the new compounds was assessed using two strains of P. falciparum from Thailand: (a) the uncloned K1 strain which is known to be CQ resistant and (b) the HB3 strain which is sensitive to all antimalarials. Parasites were maintained in continuous culture using the method of Trager and Jenson (J. Parasitol., 1977, 63, 883-886). Cultures were grown in flasks containing human erythrocytes (2-5%) with parasitemia in the range of 1% to 10% suspended in RPMI 1640 medium supplemented with 25 mM HEPES and 32 mM NaHCO3, and 10% human serum (complete medium). Cultures were gassed with a mixture of 3% O2, 4% CO2 and 93% N2.
(§2) Antimalarial activity was assessed with an adaption of the 48-h sensitivity assay of Desjardins et al. (Antimicrob. Agents. Chemother., 1979, 16, 710-718) using [^3H]-hypoxanthine incorporation as an assessment of parasite growth. Stock drug solutions were prepared in 100% dimethylsulphoxide (DMSO) and diluted to the appropriate concentration using complete medium. Assays were performed in sterile 96-well microtitre plates, each plate containing 200 μl of parasite culture (2% parasitemia, 0.5% haematocrit) with or without 10 μl drug dilutions. Each drug was tested in triplicate and parasite growth was compared to control wells (which constituted 100% parasite growth). After 24-h incubation at 37° C., 0.5 μCi hypoxanthine was added to each well. Cultures were incubated for a further 24 h before they were harvested onto filter-mats, dried for 1 h at 55° C. and counted using a Wallac 1450 Microbeta Trilux Liquid scintillation and luminescence counter. IC50 values were calculated by interpolation of the probit transformation of the log dose—response curve.

[2] = tested on: HB3 strain of P. falciparum; experiment: 48-h [3H]-hypoxanthine incorporation antimalarial sensitivity assay, HB3 strain; type: cell-based; details: HB3 strain (sensitive) of P. falciparum in vitro
Experimental: as §1, §2

MCF7 (Breast) = experiment: NCI 3-cell line anticancer assay, MCF7; type: cell-based; details: 1.00E−04 Molar, 48 hours, sulforhodamine B
Experimental: (§3) The anticancer activity of these compounds of the present invention was also assessed, by NCI 3-cell line anticancer assay. In this protocol, each cell line is inoculated and preincubated on a microtiter plate. Test agents are then added at a single concentration and the culture incubated for 48 hours. End-point determinations are made with sulforhodamine B, a protein-binding dye. Results for each test agent are reported as the percentage of growth of the treated cells when compared to the untreated control cells. Compounds which reduce the growth of any one of the cells lines to 32% or less (negative numbers indicate cell kill) are passed on for evaluation in the full panel of 60 cell lines over a 5-log dose range.

NCI-H460 (Lung) = experiment: NCI 3-cell line anticancer assay, NCI-H460; type: cell-based; details: 1.00E−04 Molar, 48 hours, sulforhodamine B
Experimental: as §3

SF-268 (CNS) = experiment: NCI 3-cell line anticancer assay, SF-268; type: cell-based; details: 1.00E−04 Molar, 48 hours, sulforhodamine B
Experimental: as §3

L1210 cells = details: cited from earlier work
[3] = K1 strain (CQ resistant) of P. falciparum in vitro, read-out: IC50
[4] = Plasmodium falciparum, K1 strain (CQ resistant) of P. falciparum in vitro, read-out: IC50

Compound: 10β-[[4-[Phenylpiperazyl)methyl]benzyl]dihydroartemisinin [Compound 13a]
- IC50 [1, 3]: 8.2 nM

Compound: CO[C@H]1O[C@@H]2O[C@@]3(C)CC[C@H]4[C@H](C)CC[C@@H]([C@H]1C)[C@@]24OO3 [Artemether, artemether, reference compound]
- IC50 ([2]; Plasmodium falciparum): 9.2 nM
- IC50 [1, 4]: 6.5 nM

Compound: CCN(CC)CCCC(C)Nc1ccnc2cc(Cl)ccc12 (stereo not shown) [Chloroquine, chloroquine, reference compound]
- IC50 ([1]; Plasmodium falciparum, K1): 255 nM

Compound: CC1CCC2C(C)C(OCc3ccc(CN4CCN(c5ccc([N+](=O)[O-])cc5)CC4)cc3)OC3OC4(C)CCC1C32OO4 (stereo not shown) [Compound 13b]
- IC50 [1, 3]: 138 nM

Compound: CC1CCC2C(C)C(OCc3ccc(CN4CCN(c5ccc(F)cc5)CC4)cc3)OC3OC4(C)CCC1C32OO4 (stereo not drawn) [Compound 13c, 10β-[[4-[(4-Fluorophenylpiperazyl)methyl]benzyl]oxy]dihydroartemisnin]
- percentage of growth of the treated cells compared to untreated control cells, MCF7 (Breast) (MCF7 (Breast)): 13%
- IC50 [2]: 2.3 nM
- percentage of growth of the treated cells compared to untreated control cells, NCI-H460 (Lung) (NCI-H460 (Lung)): 12%
- IC50 [1, 3]: 6.3 nM
- percentage of growth of the treated cells compared to untreated control cells, SF-268 (CNS) (SF-268 (CNS)): 27%

Compound: CC1CCC2C(C)C(OCc3ccc(CN4CCN(c5ccc(C(F)(F)F)cc5)CC4)cc3)OC3OC4(C)CCC1C32OO4 (stereo not drawn) [Compound 13d, 10β-[[4-[(4-Trifluoromethylphenylpiperazyl)methyl]benzyl]oxy]dihydroartemisinin]
- IC50 [2]: 8.1 nM
- IC50 [1, 3]: 12.5 nM

Compound: C[C@@H]1CCC2[C@@H](C)[C@@H](OCc3ccc(CN4CCN(Cc5ccccc5)CC4)cc3)OC3O[C@@]4(C)CC[C@@H]1[C@]32OO4 (stereo partly drawn) [Compound 13e, 10β-[[4-[(Benzylpiperazyl)methyl]benzyl]oxy]dihydroartemisinin]
- IC50 ([2]; Plasmodium falciparum): 1.8 nM
- IC50 [1, 4]: 3.8 nM

Compound: CC1CCC2C(C)C(OCc3cccc(CN4CCN(c5ccccc5)CC4)c3)OC3OC4(C)CCC1C32OO4 (stereo not drawn) [Compound 13f, 10β-[[3-[(Phenylpiperazyl)methyl]benzyl]oxy]dihydroartemisinin]
- IC50 [2]: 3.4 nM
- IC50 [1, 3]: 6.6 nM

Compound: CC1CCC2C(C)C(OCc3cccc(CN4CCN(c5ccc([N+](=O)[O-])cc5)CC4)c3)OC3OC4(C)CCC1C32OO4 (stereo not drawn) [Compound 13g, 10β-[[3-[(4-Nitrophenylpiperazyl)methyl]benzyl]oxy]dihydroartemisinin]
- IC50 [2]: 4.3 nM
- IC50 [1, 3]: 4.3 nM

Compound: C[C@H]1[C@@H](OCc2cccc(CN3CCN(c4ccc(Cl)cc4)CC3)c2)O[C@@H]2O[C@@]3(C)CC[C@H]4[C@H](C)CC[C@@H]1[C@@]24OO3 [Compound 13h, 10β-[[3-[(4-Chlorophenylpiperazyl)methyl]benzyl]oxy]dihydroartemisinin]
- percentage of growth of the treated cells compared to untreated control cells, MCF7 (Breast) (MCF7 (Breast)): 11%
- percentage of growth of the treated cells compared to untreated control cells, NCI-H460 (Lung) (NCI-H460 (Lung)): 22%
- IC50 [1, 3]: 13.3 nM
- percentage of growth of the treated cells compared to untreated control cells, SF-268 (CNS) (SF-268 (CNS)): 31%

Compound: CC1CCC2C(C)C(OCc3cccc(CN4CCN(c5cccc(C(F)(F)F)c5)CC4)c3)OC3OC4(C)CCC1C32OO4 (stereo not drawn) [Compound 13i, 10β-[[3-[(3-Trifluoromethylphenylpiperazyl)methyl]benzyl]oxy]dihydroartemisinin]
- percentage of growth of the treated cells compared to untreated control cells, MCF7 (Breast) (MCF7 (Breast)): 10%
- percentage of growth of the treated cells compared to untreated control cells, NCI-H460 (Lung) (NCI-H460 (Lung)): 15%
- IC50 [1, 3]: 22.5 nM
- percentage of growth of the treated cells compared to untreated control cells, SF-268 (CNS) (SF-268 (CNS)): 29%

Compound: CC1CCC2C(C)C(OCc3cccc(CN4CCN(c5ccc(F)cc5)CC4)c3)OC3OC4(C)CCC1C32OO4 (stereo not drawn) [Compound 13j, 10β-[[3-[(4-Fluorophenylpiperazyl)methyl]benzyl]oxy]dihydroartemisinin]
- IC50 [2]: 12.6 nM
- IC50 [1, 3]: 12.6 nM

Compound: CCNCCCCNCCCCNCCCCNCC [DEHSPM]
- cytotoxic effects in L1210 cells (L1210 cells): 0.06 µM

Compound: CCNCCCNCCCNCCCNCC [DENSPM]
- cytotoxic effects in L1210 cells (L1210 cells): 1.3 µM

Compound: CCNCCCNCCCCNCCCNCC [DESPM]
- cytotoxic effects in L1210 cells (L1210 cells): 0.2 µM
